Assay results reported in US20260000692A1, “Substituted N-(Pyridin-2-yl)Acetamide Derivatives as CDK12/13 Inhibitors” (Aurigene Oncology Limited, priority 2022, published 2026).
Read-outs that look alike come from different tables or passages of the source.

Molecular target: CDK12 (Homo sapiens, UniProt Q9NYV4)
Test: Biochemical assay for CDK12 (LANCE TR-FRET, IC50 determination)
Conditions: for IC50: CDK12, IC50 class; for inhibition at 10 µM: read-out: CDK12 % Inhibition @ 10 μM
Procedure, shortened: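 30 nM CDK12 phosphorylated 100 nM ULight-4E-BP1 (Thr37/Thr46) peptide at 100 µM ATP, as printed, in HEPES pH 7.5 buffer with MgCl2 and DTT. Compound and enzyme were preincubated 60 min, then reacted 60 min at room temperature before stopping with EDTA and Eu anti-phospho antibody. TR-FRET 665/615 ratio gave sigmoidal IC50 fits.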

Chain of CDK12 (Q9NYV4 whole entry): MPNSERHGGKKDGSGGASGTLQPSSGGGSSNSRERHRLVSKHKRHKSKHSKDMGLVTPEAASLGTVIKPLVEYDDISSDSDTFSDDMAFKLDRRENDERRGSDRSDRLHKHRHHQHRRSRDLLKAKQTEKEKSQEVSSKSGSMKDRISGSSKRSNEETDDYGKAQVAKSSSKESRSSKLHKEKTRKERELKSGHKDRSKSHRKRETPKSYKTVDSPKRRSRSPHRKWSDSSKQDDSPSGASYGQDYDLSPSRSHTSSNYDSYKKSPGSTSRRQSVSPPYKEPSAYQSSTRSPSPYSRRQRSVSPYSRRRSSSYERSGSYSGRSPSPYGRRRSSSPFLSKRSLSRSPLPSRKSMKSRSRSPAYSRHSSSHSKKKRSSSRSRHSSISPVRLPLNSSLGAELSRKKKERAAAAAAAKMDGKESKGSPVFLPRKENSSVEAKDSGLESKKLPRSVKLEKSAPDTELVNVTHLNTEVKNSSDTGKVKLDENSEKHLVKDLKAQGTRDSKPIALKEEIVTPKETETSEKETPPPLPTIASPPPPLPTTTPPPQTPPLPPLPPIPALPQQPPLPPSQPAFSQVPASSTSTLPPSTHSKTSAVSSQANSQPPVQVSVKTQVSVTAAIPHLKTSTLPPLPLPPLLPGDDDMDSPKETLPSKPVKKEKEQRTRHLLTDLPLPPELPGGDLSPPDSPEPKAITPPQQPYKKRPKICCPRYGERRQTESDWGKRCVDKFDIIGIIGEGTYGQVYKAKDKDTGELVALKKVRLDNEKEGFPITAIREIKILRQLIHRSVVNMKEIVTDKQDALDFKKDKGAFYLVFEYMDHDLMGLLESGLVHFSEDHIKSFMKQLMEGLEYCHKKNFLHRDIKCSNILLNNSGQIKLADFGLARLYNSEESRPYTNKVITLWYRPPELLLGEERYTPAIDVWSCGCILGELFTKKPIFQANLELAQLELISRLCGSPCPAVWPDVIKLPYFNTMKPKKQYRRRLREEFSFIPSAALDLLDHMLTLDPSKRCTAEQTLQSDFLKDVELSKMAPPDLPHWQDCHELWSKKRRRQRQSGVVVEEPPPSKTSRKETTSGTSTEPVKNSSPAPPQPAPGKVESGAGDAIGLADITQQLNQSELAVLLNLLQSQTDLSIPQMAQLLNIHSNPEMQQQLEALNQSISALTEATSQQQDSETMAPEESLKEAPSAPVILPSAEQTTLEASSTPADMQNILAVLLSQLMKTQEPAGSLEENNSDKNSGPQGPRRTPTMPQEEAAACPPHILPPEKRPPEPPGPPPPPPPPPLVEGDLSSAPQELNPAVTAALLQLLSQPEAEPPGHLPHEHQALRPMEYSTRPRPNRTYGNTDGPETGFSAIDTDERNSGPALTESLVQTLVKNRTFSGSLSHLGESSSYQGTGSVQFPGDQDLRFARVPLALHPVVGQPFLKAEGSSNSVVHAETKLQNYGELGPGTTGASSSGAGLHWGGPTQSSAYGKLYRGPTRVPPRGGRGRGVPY
Chain of CDK12 (O75909 whole entry partner): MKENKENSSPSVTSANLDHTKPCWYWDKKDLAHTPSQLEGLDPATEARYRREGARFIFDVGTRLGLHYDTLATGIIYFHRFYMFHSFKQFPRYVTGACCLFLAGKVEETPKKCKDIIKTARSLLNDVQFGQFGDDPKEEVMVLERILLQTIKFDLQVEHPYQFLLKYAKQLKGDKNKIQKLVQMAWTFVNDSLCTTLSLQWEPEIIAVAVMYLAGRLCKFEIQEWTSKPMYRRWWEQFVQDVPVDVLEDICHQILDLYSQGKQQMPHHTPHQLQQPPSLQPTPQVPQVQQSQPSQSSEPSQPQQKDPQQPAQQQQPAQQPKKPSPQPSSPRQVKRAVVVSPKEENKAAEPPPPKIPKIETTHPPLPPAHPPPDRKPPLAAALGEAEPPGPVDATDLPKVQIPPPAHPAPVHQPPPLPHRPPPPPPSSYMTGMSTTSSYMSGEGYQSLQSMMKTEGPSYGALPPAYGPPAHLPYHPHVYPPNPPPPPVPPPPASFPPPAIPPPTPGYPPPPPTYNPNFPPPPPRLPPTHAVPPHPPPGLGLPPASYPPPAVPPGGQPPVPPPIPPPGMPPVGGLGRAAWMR

| IC50 (read-out: IC50 μM (in range)) [µM] | inhibition at 10 µM (compound at 10 μM) [%] | CDK12 % Inhibition @ 10 μM (compound at 10 μM) [%] | SMILES | IC50 (IC50 μM (in range)) [µM] | inhibition at 10 µM [%] |
| --- | --- | --- | --- | --- | --- |
| 0.01 to 0.1 | 87 |  | CNC(=O)C(C)Oc1cc(NC(=O)Cc2ccc(C3CCN(C#N)CC3)nc2)ncc1Cl (centres unmarked) [Compound 82, 2-((5-chloro-2-(2-(6-(1-cyanopiperidin-4-yl)pyridin-3-yl)acetamido)pyridin-4-yl)oxy)-N-methylpropanamide] |  |  |
| < 0.01 | 94 |  | COc1cc(NC(=O)Cc2ccc(C3=CCN(C#N)CC3C)nc2)ncc1Cl (centres unmarked) [Compound 70, N-(5-chloro-4-methoxypyridin-2-yl)-2-(1′-cyano-3′-methyl-1′,2′,3′,6′-tetrahydro-[2,4′-bipyridin]-5-yl)acetamide] |  |  |
| > 0.1 | 93 |  | COc1cc(NC(=O)Cc2ccc(-c3ccc(CN(C#N)C(C)C)nc3)nc2)ncc1Cl [Compound 132, N-(5-chloro-4-methoxypyridin-2-yl)-2-(6′-((N-isopropylcyanamido)methyl)-[2,3′-bipyridin]-5-yl)acetamide] |  |  |
|  |  |  | CN(C)C(=O)Oc1cc(NC(=O)Cc2ccc(C3CCN(C#N)CC3)nc2)ncc1Cl [Compound 101, 5-chloro-2-(2-(6-(1-cyanopiperidin-4-yl)pyridin-3-yl)acetamido)pyridin-4-yl dimethylcarbamate] | > 0.1 | 86 |
| < 0.01 | 72 |  | CN1CCC(Oc2cc(NC(=O)Cc3ccc(C4=CCN(C#N)CC4)nc3)ncc2Cl)C1 (centres unmarked) [Compound 10, N-(5-chloro-4-((1-methylpyrrolidin-3-yl)oxy)pyridin-2-yl)-2-(1′-cyano-1′,2′,3′,6′-tetrahydro-[2,4′-bipyridin]-5-yl)acetamide] |  |  |
| 0.01 to 0.1 | 97 |  | CNC(=O)C(C)Oc1cc(NC(=O)Cc2ccc(-c3cccc(C#N)n3)nc2)ncc1Cl (racemic) [Compound 155, 2-((5-chloro-2-(2-(6′-cyano-[2,2′-bipyridin]-5-yl)acetamido)pyridin-4-yl)oxy)-N-methylpropanamide] |  |  |
| 0.01 to 0.1 | 94 |  | COc1cc(NC(=O)Cc2ccc(C3=CCCN(C#N)C3)cn2)ncc1Cl [Compound 111, N-(5-chloro-4-methoxypyridin-2-yl)-2-(1′-cyano-1′,2′,5′,6′-tetrahydro-[3,3′-bipyridin]-6-yl)acetamide] |  |  |
| < 0.01 | 93 |  | CN1CC2(CC(Oc3cc(NC(=O)Cc4ccc(C5=CCCN(C#N)C5)nc4)ncc3Cl)C2)C1 [Compound 69, N-(5-chloro-4-((2-methyl-2-azaspiro[3.3]heptan-6-yl)oxy)pyridin-2-yl)-2-(1′-cyano-1′,2′,5′,6′-tetrahydro-[2,3′-bipyridin]-5-yl)acetamide] |  |  |
| 0.01 to 0.1 |  | 86 | COc1cc(NC(=O)Cc2ccc(C3=CCN(C#N)C(C)C3)nc2)ncc1Cl (single isomer, unassigned) [Compound 67, N-(5-chloro-4-methoxypyridin-2-yl)-2-(1′-cyano-2′-methyl-1′,2′,3′,6′-tetrahydro-[2,4′-bipyridin]-5-yl)acetamide] |  |  |
| 0.01 to 0.1 |  | 90 | CNC(=O)C(C)Oc1cc(NC(=O)Cc2ccc(C3CCCN(C#N)C3)nc2)ncc1Cl (single isomer, unassigned) [Compound 89, 2-((5-chloro-2-(2-(6-(1-cyanopiperidin-3-yl)pyridin-3-yl)acetamido)pyridin-4-yl)oxy)-N-methylpropanamide] |  |  |
| > 0.1 | 81 |  | CN1CC[C@H](Oc2cc(NC(=O)Cc3ccc(C4CCN(C#N)CC4)nc3)ncc2Cl)C1 [Compound 118, (S)-N-(5-chloro-4-((1-methylpyrrolidin-3-yl)oxy)pyridin-2-yl)-2-(6-(1-cyanopiperidin-4-yl)pyridin-3-yl)acetamide] |  |  |
| > 0.1 | 75 |  | COc1cc(NC(=O)Cc2ccc(-c3cc(N4CC(O)C4)cc(C#N)n3)nc2)ncc1Cl [Compound 182, N-(5-chloro-4-methoxypyridin-2-yl)-2-(6′-cyano-4′-(3-hydroxyazetidin-1-yl)-[2,2′-bipyridin]-5-yl)acetamide] |  |  |
| 0.01 to 0.1 | 75 |  | N#CN1CC=C(c2ccc(CC(=O)Nc3ccc(Cl)cn3)cn2)CC1 [Compound 4, N-(5-chloropyridin-2-yl)-2-(1′-cyano-1′,2′,3′,6′-tetrahydro-[2,4′-bipyridin]-5-yl)acetamide] |  |  |
| < 0.01 | 87 |  | COc1cc(NC(=O)Cc2ccc(C3=CCN(C#N)C(C)C3)nc2)ncc1Cl (centres unmarked) [Compound 65, N-(5-chloro-4-methoxypyridin-2-yl)-2-(1′-cyano-2′-methyl-1′,2′,3′,6′-tetrahydro-[2,4′-bipyridin]-5-yl)acetamide] |  |  |
| 0.01 to 0.1 | 79 |  | N#Cc1cc(-c2ccc(CC(=O)Nc3cc(O[C@@H]4CCOC4)c(Cl)cn3)cn2)ccn1 [Compound 145, (R)-N-(5-chloro-4-((tetrahydrofuran-3-yl)oxy)pyridin-2-yl)-2-(2′-cyano-[2,4′-bipyridin]-5-yl)acetamide] |  |  |
| > 0.1 | 68 |  | COc1cc(NC(=O)Cc2ccc(-c3cc(N4CC(OC)C4)cc(C#N)n3)nc2)ncc1Cl [Compound 193, N-(5-chloro-4-methoxypyridin-2-yl)-2-(6′-cyano-4′-(3-methoxyazetidin-1-yl)-[2,2′-bipyridin]-5-yl)acetamide] |  |  |
| 0.01 to 0.1 |  | 87 | COc1cc(NC(=O)Cc2ccc(-c3cc(O[C@H]4CCOC4)cc(C#N)n3)nc2)ncc1Cl [Compound 197, (S)-N-(5-chloro-4-methoxypyridin-2-yl)-2-(6′-cyano-4′-((tetrahydrofuran-3-yl)oxy)-[2,2′-bipyridin]-5-yl)acetamide] |  |  |
| < 0.01 | 100 |  | CNC(=O)C(C)Oc1cc(NC(=O)Cc2ccc(C3=CCCN(C#N)C3)nc2)ncc1Cl (centres unmarked) [Compound 56, 2-((5-chloro-2-(2-(1′-cyano-1′,2′,5′,6′-tetrahydro-[2,3′-bipyridin]-5-yl)acetamido)pyridin-4-yl)oxy)-N-methylpropanamide] |  |  |
| 0.01 to 0.1 |  | 87 | COc1cc(NC(=O)Cc2ccc(C3CCCN(C#N)C3)nc2)ncc1Cl (single isomer, unassigned) [Compound 80, N-(5-chloro-4-methoxypyridin-2-yl)-2-(6-(1-cyanopiperidin-3-yl)pyridin-3-yl)acetamide] |  |  |
| < 0.01 | 93 |  | COc1cc(NC(=O)Cc2ccc(C3=CCN(C#N)CC3C)nc2)ncc1Cl (single isomer, unassigned) [Compound 71, N-(5-chloro-4-methoxypyridin-2-yl)-2-(1′-cyano-3′-methyl-1′,2′,3′,6′-tetrahydro-[2,4′-bipyridin]-5-yl)acetamide] |  |  |

| SMILES | IC50 (read-out: IC50 μM (in range)) [µM] | inhibition at 10 µM (compound at 10 μM) [%] | CDK12 % Inhibition @ 10 μM (compound at 10 μM) [%] | IC50 (IC50 μM (in range)) [µM] | inhibition at 10 µM [%] |
| --- | --- | --- | --- | --- | --- |
| CN1C2CCC1CC(Oc1cc(NC(=O)Cc3ccc(C4=CCCN(C#N)C4)nc3)ncc1Cl)C2 (centres unmarked) [Compound 62, N-(5-chloro-4-((8-methyl-8-azabicyclo[3.2.1]octan-3-yl)oxy)pyridin-2-yl)-2-(1′-cyano-1′,2′,5′,6′-tetrahydro-[2,3′-bipyridin]-5-yl)acetamide] | < 0.01 | 96 |  |  |  |
| N#CN1CC=C(c2ccc(CC(=O)Nc3cc(OC4CCC4)c(Cl)cn3)cn2)CC1 [Compound 28, N-(5-chloro-4-cyclobutoxypyridin-2-yl)-2-(1′-cyano-1′,2′,3′,6′-tetrahydro-[2,4′-bipyridin]-5-yl)acetamide] | < 0.01 | 95 |  |  |  |
